Measured values: patent publication US9821024B2, “Immunomodulatory compositions” (Sigmoid Pharma Limited, priority 2010, dated 2017)

Tested on: NFκB
Details: HeLa cells; FIG. 29

**Q.** NNc1nncc2ccccc12 [Hydralazine] was tested. Which “Concentration of maximal NFκB activation” value did it give?
**A.** The value was 10 µg/mL.
